Measured values reported in patent publication US20150313913A1, “POSITIVE ALLOSTERIC MODULATORS OF THE GABA-A RECEPTOR IN THE TREATMENT OF AUTISM” (UNIVERSITY OF WASHINGTON THROUGH ITS CENTER FOR …, priority 2013, published 2015).
Entries after “also recorded” stand apart in the source; their conditions may differ.

Assays:
[1] = system: mouse genetic models of human Dravet syndrome and idiopathic autism; experiment: Summary: low-dose treatment of mouse models of autism; format: in vivo, mice; details: low doses that do not induce sedative or anxiolytic effects
From the text: The present disclosure describes methods effective in the rescue or amelioration of autism-like behavior, cognitive deficit, and context-dependent spatial memory.
In particular embodiments, these methods comprise the administration of low doses of a benzodiazepine to a human or other mammalian subject in order to rescue autism-like behavior, cognitive deficit, and context-dependent spatial memory. […] At such low doses, the administration of benzodiazepines, such as CLZ, to mammalian subjects will result in improvement of autism-like behavior, cognitive deficit, and context-dependent spatial learning and memory with much lower levels of sedation compared to mammalian subjects who receive typical higher doses of CLZ or other benzodiazepines that are used for treatment of anxiety, insomnia, or seizure.
The present disclosure is also directed to methods of rescuing or ameliorating indicia of Autism Spectrum disorders, autism-like behavior, cognitive deficit, and context-dependent spatial learning and memory in Dravet syndrome or idiopathic autism with α-2,3-specific GABA-A receptor positive allosteric modifiers. Such α-2,3-subunit selective GABA-A receptor positive allosteric modifiers include L838,417.
Therapeutic approaches to treat autistic traits in animal studies or in clinical trials have primarily focused on reducing excitatory neurotransmission in glutamatergic synapses to rebalance E/I ratio in autistic brain (Michalon et al., 2012; Yang et al., 2012). However, autistic-like behaviors in ASD mouse models are only partially reversed by drugs that inhibit excitatory neurotransmission, and these drugs also have unwanted side effects on wild-type mice (Henderson et al., 2012; Michalon et al., 2012; Yang et al., 2012). To overcome these drawbacks, the inventors focused on the opposing side, the GABAergic inhibitory transmission in autistic brain. Their results highlight the potential for therapy of autistic-like behaviors and cognitive deficit in ASD by low-dose treatment with subunit-selective benzodiazepines and other positive allosteric modulators of GABA-A receptors. […] It is possible that the biphasic dose-response relationship of the positive allosteric modulators reflects their actions on receptors containing α2,3 subunits at low doses and on receptors containing α1 subunits at higher doses.

BTBR mice [2] = experiment: Three-chamber social interaction test; details: for social interaction (time with stranger mouse, close interaction), dose series: single i.p. injection 30 min before test, low/increasing doses
Experimental: In the three-chamber test, a test mouse is placed in the center chamber, and the preference of the test mouse for interaction with an inanimate object (a small empty cage) in the left chamber vs. a stranger mouse in an identical cage in the right chamber using a digital camera and quantitative video-tracking analysis.
(§1) The test was performed as described previously (Han et al., 2012) with minor modifications. The threechamber apparatus is a non-transparent Plexiglas box (30×60 cm) with two transparent partitions that make left, center, and right chambers (30×20 cm). In the first 10-min session, a test mouse was placed in the center of the empty three-chamber unit to habituate the test mouse. The mouse was allowed to freely explore each chamber. In the second 10-min session, an age- and gender-matched same strain mouse that had never been exposed to the test mouse, was placed in one of the two wire cages. The empty wire cage as an inanimate object cue was placed on the other side. Then, the test mouse was placed again in the center, and allowed to freely explore the chamber for 10 min. Time spent in each chamber, and time spent within a 5 cm radius proximal to each wire cage, as a close interaction were measured by the videotracking software (EthoVision XT 8.5, Noldus Technology). All data shown are means±s.e.m. and analyzed using two-way ANOVA with Bonferroni's post hoc analysis and one-way ANOVA with Tukey's post hoc analysis.
(§2) L-838,417, and DMCM (Sigma), dissolved in 100% DMSO (sterile, Sigma) was diluted in PBS (the final concentration of DMSO was ranged from 0.005% to 0.1%). Drugs were administered by an intraperitoneal injection in a volume of […] 30 min before the behavioral tests.

C57BL/6J mice [3] = experiment: Three-chamber social interaction test; format: in vivo
From the text: The mouse was allowed to freely explore each chamber.

BTBR mice [4] = experiment: Open field test; format: in vivo; details: clobazam 0.05 mg/kg
Experimental: (§3) Open field test was performed as previously described (Han et al., 2012). 50×50 cm square open field arena with non-transparent white Plexiglas was used in this study. During the 10 min of trial, total distance moved, circling behavior (a complete 360-degree turn of nose angle with respect to the body center) and time in center (20×20 cm imaginary square) were measured by the video-tracking software (EthoVision XT 8.5, Noldus Technology).

GABA-A receptor = details: Table 1, exemplary benzodiazepines; cited from earlier work
[5] = Table 1, values marked *; cited from earlier work
C57BL/6J mice [6] = experiment: Open field test; format: in vivo; details: 0.2 mg/kg
Experimental: as §3

C57BL/6J mice [7] = experiment: Elevated plus maze test; format: in vivo; details: 0.2 mg/kg
Experimental: The test was performed as previously described (Han et al., 2012). The maze used in this study has two closed arms (5.1×30 cm) surrounded by 20-cm high non-transparent walls and two open arms (5.1×30 cm). During the 10 min of trial, times spent in closed, center, and open arms, and total distance traveled during the trial were measured by the video-tracking software (EthoVision XT 8.5, Noldus Technology).

[8] = in vivo; cited from earlier work
Scn1a+/− mice = experiment: Three-chamber social preference test; format: in vivo; details: low doses, narrow dose range (FIGS. 41N, 41O)
From the text: The mouse was allowed to freely explore each chamber. […] The recorded video file was further analyzed by off-line video tracking software (ETHOVISION™ XT 7.0). […] All data shown are means±s.e.m. and analyzed using two-way ANOVA with Bonferroni's post hoc analysis and one-way ANOVA with Tukey's post hoc analysis.
Oral administration is specifically contemplated for the methods described herein, and is well known for both benzodiazepines and non-BDZ GABA-A enhancers as described herein.
as §1, §2

BTBR mice [9] = experiment: Context-dependent fear conditioning test; format: in vivo; details: 0.05 mg/kg
From the text: The contextual fear-conditioning chamber was a square arena (25×25 cm) with clear PLEXIGLAS™ walls and a metal grid floor connected to a circuit board that delivered shocks to the metal grid (COULBOURN INSTRUMENTS™). An analog camera was attached on top of the chamber. The camera and the circuit board were connected to a personal computer, and its software (FREEZE FRAME™ 2.0, ACTIMETRICS™) controlled the circuit and recorded the data. The chamber was cleaned with 70% ethanol and wiped with paper towels before each session. In the habituation session, a test mouse was placed in the chamber and allowed to explore for 2 min^66-69. Immediately after habituation, the test mouse received a single mild foot shock (2 s, 0.5 mA). After staying in the chamber one more min, the mouse was removed from the chamber. For the 30-min short-term memory test, the mouse was returned to the context 30 min after the end of the training session. For 24-hr long-term memory test, the mouse was returned to the context 24 hr after the training session. The movement of mice was also recorded by a USB webcam (LIFECAM™ HD-6000, MICROSOFT™) and PC-based video capture software (WINAVI™ Video Capture, ZJ MEDIA DIGITAL TECHNOLOGY™) for 2 min. The recorded video file was further analyzed by off-line video tracking software (ETHOVISION™ XT 7.0, NOLDUS TECHNOLOGY™). The freezing scores were calculated by dividing the test session into 1 min bouts and averaging together all 2 min for each animal. All data shown.
Freezing behavior is defined as the period during which the velocity of the test mouse is less than 1.75 cm/s, and non-freezing behavior is defined as the period during which the velocity of the mouse is greater than 2 cm/s.

## CN1C(=O)CC(=O)N(c2ccccc2)c2cc(Cl)ccc21 [Clobazam]
[1]
  autistic-like behaviors and cognitive deficit in BTBR mice (summary): improved
BTBR mice [2]; 0.05 mg/kg (low dose) 30 min before test
  social interaction deficit: ameliorated social interaction deficits
BTBR mice [2]; FIG. 9
  time in the chamber with the stranger mouse: increased
  time of interaction with the stranger mouse: increased
BTBR mice [2]
  social interaction (time with stranger mouse, close interaction), dose series: increases
C57BL/6J mice [3]; clobazam, FIG. 9
  social interaction of control mice: no effect
BTBR mice [4]
  anxiolytic effect (time spent in center): without sedative (FIG. 41C) or anxiolytic effects
  sedative effect (total distance moved): without sedative
GABA-A receptor
  Effect at GABA-A receptor: Agonist
[5]
  Dose in humans for anti-anxiety, anti-convulsive, or sedative effects: equivalent dose to 10 mg diazepam: 20 mg

## CCc1c(C(=O)OC)ncc2[nH]c3cc(OC)c(OC)cc3c12 [DMCM]
C57BL/6J mice [3]; 0.2 mg/kg single injection 30 min prior
  normal social interaction behavior: impaired; also recorded: substantially reduced
C57BL/6J mice [6]
  general locomotor behavior (distance moved): not altered
  time spent in center: unaltered
C57BL/6J mice [7]
  anxiety levels (time in the open arms): not altered
  number of entries in the open arms: unchanged

## Cc1nnc2n1-c1ccc(Cl)cc1C(c1ccccc1Cl)=NC2 [Triazolam]
GABA-A receptor
  Effect at GABA-A receptor: Agonist
[5]
  Dose in humans for anti-anxiety, anti-convulsive, or sedative effects: equivalent dose to 10 mg diazepam: 0.25 mg
[8]
  half-life: 2 to 3 h

## Cc1ccc(-c2nc3ccc(C)cn3c2CC(=O)N(C)C)cc1 [zolpidem]
[1]
  autistic-like behaviors and cognitive deficit in BTBR mice (summary): opposite effects
Scn1a+/− mice
  social interactions in three-chamber test: not effective
BTBR mice [2]; 0.5 mg/kg
  social behavior (close interaction): made social behavior worse
BTBR mice [2]; dose range up to 0.5 mg/kg (clonazepam: test doses)
  sedation / total distance moved during the three-chamber test: dose-dependently decreased
BTBR mice [2]; high doses, zolpidem 0.5 mg/kg
  total movement during the three-chamber test at high dose: significantly decreased
BTBR mice [2]; higher doses
  effect on social interaction at doses above the maximally effective dose: aggravated their social interaction deficit at high doses
BTBR mice [2]
  social interaction (time with stranger mouse, close interaction), dose series: failed to show beneficial effects
BTBR mice [2]; listed as Zolpidem
  social interaction (time with stranger mouse, close interaction), dose series: failed to rescue social deficit
C57BL/6J mice [3]; L-838,417 / zolpidem (FIGS. 45I, 45J)
  social behavior, dose series: dose-dependently impaired
C57BL/6J mice [3]; high dose
  social behavior at high dose: impaired
BTBR mice [9]
  long-term (24 h) memory: not long-term memory
  short-term (30 min) memory: enhanced short-term memory
